Source: patent US4499269A, “Fused 1,3,5-triazines” (Fisons plc, priority 1982, dated 1985)

Experiments:
[1] = system: delayed contact sensitivity to oxazolone (increase of ear thickness); assay: Delayed contact sensitivity to oxazolone in mice (Example A); format: in vivo; details: for inhibition of increased ear thickness: 24 hours after challenge
Protocol: This response is a measure of a cell-mediated immune response which is dependent on the activity of thymus-derived lymphocytes. Mice are sensitised with 100 μl of oxazolone and are subsequently challenged with 15 μl of 3% oxazolone on their right ears on day 7. The resulting cell-mediated response is measured 24 hours after challenge by assessing the increase of ear thickness using a dial gauge. The unchallenged left ears act as controls.

[2] = system: rejection of skin grafts; assay: Rejection of tailskin grafts in mice, graft survival (Example B); format: in vivo, mice (CBA strain donors, Lac/a strain recipients)
Protocol: The tailskin grafting method of Bailey and Usania (Transplantation Bulletin 7, 424-5, 1960) was used.
Sections of tailskin from donor CBA strain mice (agonti) were grafted onto the tails of 16 Lac/a strain mice (albino). Test compound was given from 2 days prior to grafting until graft loss at a dose of 50 mg/kg/day in 1% "Tween 80"/saline vehicle by the intraperitoneal route. Graft condition was assessed daily and mean graft survival time (days) of vehicle, and drug tested groups, was compared.

[3] = system: delayed hypersensitivity reaction to PPD; assay: Delayed hypersensitivity reaction to PPD in guinea pigs, topical under occlusion (Example C); format: in vivo; details: for % Inhibition 24h after challenge: Diameter of erythema / % Inhibition 24h after challenge: Erythema score / % Inhibition 24h after challenge: Increase in skin thickness: topical under occlusion, n=6
Protocol: Male guinea pigs weighing 250-300 g were sensitised by a subcutaneous injection of Freunds Complete Adjuvant (Difco) in saline. Fourteen days following sensitisation animals were challenged intradermally into a shaved flank with 50 μg of purified protein derivative PPD (in 0.1 ml of saline). Changes in skin thickness were determined immediately before and 24 h and 48 h after antigen challenge. In addition, the diameter of reaction and a semiquantitative estimate of the degree of erythema were determined at 24 h and 48 h.
The compound of Example 1 was applied topically under an occlusive dressing. This consisted of adding a solution of the compound in dimethylacetamide (0.3 ml) to a filter paper square (4×4 cm) backed by surgical tape placed on the challenge site and held in place by adhesive bandage encircling the torso of the animal. The dressing was applied 10 min after challenge and removed 24 h later. Control animals received dimethylacetamide alone to the challenge site.
The effect of the compound of Example 1 applied under occlusion, with antigen challenge, on the delayed hypersensitivity reaction to PPD in guinea pigs (n=6)

Compound: COc1ccc2c(c1)sc1nc(N)nc(=Nc3ccccc3)n12 [Example 1, 2-Amino-8-methoxy-4-phenylimino-4H-1,3,5-triazino[2,1-b]benzothiazole]
- inhibition of delayed contact sensitivity to oxazolone ([1]; mice, result in words): inhibit a delayed contact sensitivity to oxazolone in mice
- inhibition of increased ear thickness ([1]; single dose 50 mg/kg intraperitoneal on day 1 relative to sensitisation): 44%
- inhibition of increased ear thickness ([1]; single dose 50 mg/kg intraperitoneal on day 2 relative to sensitisation): 44%
- inhibition of increased ear thickness ([1]; single dose 50 mg/kg intraperitoneal on day 3 relative to sensitisation): 49%
- inhibition of increased ear thickness ([1]; single dose 50 mg/kg intraperitoneal on day 7 relative to sensitisation): 61%
- inhibition of increased ear thickness ([1]; single dose 50 mg/kg intraperitoneal on one of days -1, 0, 1, 2, 3 or 7 relative to sensitisation, result in words): inhibition of increased ear thickness
- prolongation of skin graft survival ([2]; 50 mg/kg/day intraperitoneal from 2 days prior to grafting until graft loss, versus vehicle, significant): 2.5 days
- suppression of the rejection of skin grafts ([2]; mice, result in words): suppress the rejection of skin grafts in mice
- % Inhibition 24h after challenge: Diameter of erythema ([3]; 1% in dimethylacetamide): 5%
- % Inhibition 24h after challenge: Erythema score ([3]; 1% in dimethylacetamide): 20%
- % Inhibition 24h after challenge: Increase in skin thickness ([3]; 1% in dimethylacetamide): 20%
- inhibition of the increase in skin thickness ([3]; 1 to 3% in dimethylacetamide, 24 hours post challenge, result in words): dose dependent inhibition of the increase in skin thickness
- reaction diameters and erythema scores ([3]; 1 to 3% in dimethylacetamide, compared with dimethylacetamide controls, result in words): significantly reduced the reaction diameters and erythema scores
- % Inhibition 24h after challenge: Diameter of erythema ([3]; 2% in dimethylacetamide): 16%
- % Inhibition 24h after challenge: Erythema score ([3]; 2% in dimethylacetamide): 32%
- % Inhibition 24h after challenge: Increase in skin thickness ([3]; 2% in dimethylacetamide): 35%
- % Inhibition 24h after challenge: Diameter of erythema ([3]; 3% in dimethylacetamide): 34%
- % Inhibition 24h after challenge: Erythema score ([3]; 3% in dimethylacetamide): 63%
- % Inhibition 24h after challenge: Increase in skin thickness ([3]; 3% in dimethylacetamide): 50%
- suppression of delayed hypersensitivity reaction ([3]; guinea pigs, dosed topically, result in words): suppress a delayed hypersensitivity reaction in guinea pigs
